Assay results published in patent US8697387B2, “Methods for identifying agents and their use for the prevention of restenosis” (DiscoverRx Corporation, priority 2006, dated 2014).
Counter-ions that a name gives are not always drawn. *1 amine or outer side, *2 acyl side, *3 side chain or, on linkers, in order; H or OH if unused. Where a SMILES comes first, the peptide text is derived from it. Bridges are numbered along the chain shown (N, C = ends). Roman numbers before positions name the chains, in order. [ ]: non-standard residue; d: D form. Actinocin(9to1) = Cc1c2oc3c(C)ccc(C(=O)[*:1])c3nc-2c(C(=O)[*:2])c(N)c1=O; NMeV = CN[C@H](C(=O)O)C(C)C; Sar = CNCC(=O)O

What was measured:
[1] = test system: BioMAP Systems (human primary cell-based assay systems: endothelial cells, smooth muscle cells, PBMC, fibroblasts); assay: BioMAP Systems screen scored for desired anti-restenosis parameter modulation; conditions: for Total score for desired parameter modulation, Score (out of 45): 1 point per desired activity present across BioMAP systems of Table 2, paclitaxel average of 11 runs, rapamycin average of 13 runs
Excerpt: The BioMAP Systems that model the relevant biological processes (smooth muscle cell hyperplasia, tissue remodeling, inflammation etc, including the measurements of readout parameters listed in Table 1), and are used for screening are listed in Table 2. Each of the cells listed in Table 1 can be utilized in one or more of the systems described below. For example, smooth muscle cells are used in CASM3C; CASMNo; SM3C and SMNo systems. Such BioMap systems are generally primary human cell based assays. Compounds are screened in one or more such BioMap systems, usually in at least about two such systems, and may be screened in at least three, at least four, at least five, at least ten, and up to all of the assays set forth in Table 2.
These assays are scored according to their modulation of the selected readout parameters.
Human umbilical vein endothelial cells (HUVEC) were pooled from multiple donors, cultured according to standard methods, and plated into microtiter plates at passage 4. Human neonatal foreskin fibroblasts (HDF) from 3 donors were pooled and cultured according to standard methods. 24 hr before stimulation with cytokines, confluent HDF in microtitre plates were serum starved. Coronary artery endothelial cells (CAEC), coronary artery smooth muscle cells (CASMC) and umbilical artery smooth muscle cells (SMC) cultured according to standard methods. Peripheral blood mononuclear cells (PBMC) were prepared from buffy coats from normal human donors according to standard methods. Concentrations/amounts of agents added to confluent microtitre plates to build each system were as follows: cytokines (IL-1 beta, 1 ng/ml; TNF-alpha, 5 ng/ml; IFN-gamma, 20 ng/ml; TGF-beta, 5 ng/ml; IL-4, 5 ng/ml), activators (histamine, 10 microM; SAg, 20 ng/ml or LPS, 0.2 ng/ml), PBMC (7.5×10^4 cells/well).
Compounds were prepared in the solvent as directed, added 1 hr before stimulation of the cells, and were present during the 24 hr stimulation period for the measurement of parameters listed in Table 2. For proliferation, compounds added 1 hr before stimulation of the cells with cytokines, and were present during the 96 hr. If prepared in DMSO, the final concentration of solvent was 0.1% or less.
The levels of readout parameters were measured by ELISA. Briefly, microtiter plates are treated, blocked, and then incubated with primary antibodies or isotype control antibodies (0.01-0.5 microg/ml) for 1 hr. After washing, plates were incubated with a peroxidase-conjugated anti-mouse IgG secondary antibody or a biotin-conjugated anti-mouse IgG antibody for 1 hr followed by streptavidin-HRP for 30 min. Plates were washed and developed with TMB substrate and the absorbance (OD) was read at 450 nm (subtracting the background absorbance at 650 nm). Quantitation of TNF-alpha in the LPS system was done using a commercially available kit according to the manufacturer's directions. Proliferation of endothelial cells (HUVEC and CAEC), smooth muscle cels (SMC and CASMC), and PBMC (T cells) was quantitated by Alamar blue or SRB reduction.
Mean OD values for each parameter were calculated from triplicate samples per experiment. The mean value obtained for each parameter in a treated sample was then divided by the mean value from an appropriate control to generate a ratio. All ratios were then log10 transformed. 99% prediction envelopes (grey shading in Figures) were calculated for historical controls.

[2] = test system: BioMAP Systems cells (SRB total protein, PBMC viability, cell morphology); assay: Toxicity assessments in BioMAP Systems (SRB, PI, visual)
Protocol: Adverse effects of compounds on cells were determined by (1) measuring alterations in total protein (Sulforodhamine B or SRB assay); (2) measuring the viability of peripheral blood mononuclear cells (incorporation of propidium iodide, PI); and (3) microscopic visualization. SRB was performed by staining cells with 0.1% sulforhodamine B after fixation with 10% TCA, and reading wells at 560 nm. PBMC viability was assessed by adding propidium iodide (10 microgram/ml) to PBMC that had been cultured for 24 hours in the presence of activators and measuring the percentage of cells that incorporated dye by flow cytometry after 10 minutes. Samples were assessed visually according to the following scheme: 2.0=cobblestone (unactivated phenotype); 1.0=activated (normal phenotype); 0.5=lacy or sparse; 0.375=rounded; 0.25=sparse and granular; 0.1=no cells in well.
Cellular toxicity in BioMAP Systems is indicated if the SRB parameter (sulforhodamine B, measure of total protein loss) is <−0.3, the PI parameter (propidium iodine, measure of lymphotoxicity) is <−0.1, and the Visual parameter (change in cell morphology) is <−0.6.

[3] = test system: neointimal hyperplasia after balloon vascular injury; conditions: rat; reported by Pan et al., 2003; cited from earlier work
[4] = test system: smooth muscle cell proliferation relative to endothelial cell proliferation; assay: Proliferation of smooth muscle cells relative to endothelial cells in BioMAP systems 3C, SM3C, CANo, CASMNO, CA3C, CASM3C; type: cell-based, human; conditions: all conditions, all doses tested, independent of source of primary cells
Excerpt: One can further refine the selection of drugs for the treatment of restenosis by measuring their relative effects at multiple doses on proliferation of smooth muscle cells and endothelial cells derived from different sources (umbilical cord or coronary artery), and under different growth conditions (proliferation driven by growth factors only, or in the presence of pro-inflammatory factors that are normally found at the restenotic site). Statistical analysis of cell proliferation in BioMAP systems 3C, SM3C, CANo, CASMNO, CA3C, and CASM3C listed in Table 1 was performed for candidate drugs 8-Azaguanine, Amodiaquin Dihydrochloride Dihydrate, Atovaquone, Ciclopirox, Cis-(Z)-Flupentixol Dihydrochloride, Clofilium Tosylate, Monobenzone, Primaquine Diphosphate, Securinine, Syrosingopine, Terconazole, and Trimethylcolchicinic Acid. […]
The levels of readout parameters were measured by ELISA. […] Plates were washed and developed with TMB substrate and the absorbance (OD) was read at 450 nm (subtracting the background absorbance at 650 nm). Quantitation of TNF-alpha in the LPS system was done using a commercially available kit according to the manufacturer's directions. Proliferation of endothelial cells (HUVEC and CAEC), smooth muscle cels (SMC and CASMC), and PBMC (T cells) was quantitated by Alamar blue or SRB reduction. […]

| Molecule | Total score for desired parameter modulation, Score (out of 45) [1] | also measured |
| --- | --- | --- |
| C[C@]12CC[C@@H]3c4ccc(O)cc4CC[C@H]3[C@@H]1CC[C@@H]2O [17beta-estradiol] | – | Doses at which inactive in BioMAP Systems (lower than) [1]: < 3.3 µM; Dose showing signs of cellular toxicity ([2]; human): 10 µM |
| Cc1c2oc3c(C)ccc(C(=O)N[C@@H]4C(=O)N[C@H](C(C)C)C(=O)N5CCC[C@H]5C(=O)N(C)CC(=O)N(C)[C@@H](C(C)C)C(=O)O[C@@H]4C)c3nc-2c(C(=O)N[C@@H]2C(=O)N[C@H](C(C)C)C(=O)N3CCC[C@H]3C(=O)N(C)CC(=O)N(C)[C@@H](C(C)C)C(=O)O[C@@H]2C)c(N)c1=O [Actinomycin D] (I: T[dV]P[Sar][NMeV] / II: T[dV]P[Sar][NMeV]; ester I:1-I:C, II:1-II:C; linker I:N-II:N via Actinocin(9to1)) | – | Doses at which inactive in BioMAP Systems (lower than) [1]: < 0.0005 µM; Dose showing signs of cellular toxicity ([2]; BioMAP Systems): 0.004572 µM |
| CCN(CC)Cc1cc(Nc2ccnc3cc(Cl)ccc23)ccc1O [Amodiaquin Dihydrochloride Dihydrate] | 23 | – |
| O=C1C(O)=C([C@H]2CC[C@H](c3ccc(Cl)cc3)CC2)C(=O)c2ccccc21 [Atovaquone] | 22 | – |
| C=C(C)[C@@H]1CC[C@]2(CO)CC[C@]3(C)[C@H](CC[C@@H]4[C@@]5(C)CC[C@H](O)C(C)(C)[C@@H]5CC[C@]43C)[C@@H]12 [Betulin] | 31 | – |
| O=C(O)CCCc1ccc(N(CCCl)CCCl)cc1 [Chlorambucil] | 30 | – |
| Cc1cc(C2CCCCC2)n(O)c(=O)c1 [Ciclopirox Ethanolamine] | 20 | – |
| Cl.Cl.OCCN1CCN(CC/C=C2/c3ccccc3Sc3ccc(C(F)(F)F)cc32)CC1 [Cis-(Z)-Flupentixol Dihydrochloride] | 33 | – |
| CC(=O)N(O)CCCCCNC(=O)CCC(=O)N(O)CCCCCNC(=O)CCC(=O)N(O)CCCCCN [Deferoxamine Mesylate] | 26 | – |
| COc1cc2nc(N3CCN(C(=O)C4COc5ccccc5O4)CC3)nc(N)c2cc1OC (stereo not drawn) [Doxazosin Mesylate] | 22 | – |
| Nc1nc2nn[nH]c2c(=O)[nH]1 [Drug 8-Azaguanine, 8-Azaguanine] | 28 | – |
| O=c1ccc2cc(O)c(O)cc2o1 [Esculetin] | 25 | Effect on neointimal hyperplasia after balloon vascular injury [3]: inhibit neointimal hyperplasia |
| Oc1ccc(OCc2ccccc2)cc1 [Monobenzene] | 24 | – |
| COC(=O)C1=C(C)NC(C)=C(C(=O)OC)C1c1ccccc1[N+](=O)[O-] [Nifedipine] | 28 | – |
| CC(=O)O[C@H]1C(=O)[C@@]2(C)[C@H]([C@H](OC(=O)c3ccccc3)[C@]3(O)C[C@H](OC(=O)[C@H](O)[C@@H](NC(=O)c4ccccc4)c4ccccc4)C(C)=C1C3(C)C)[C@]1(OC(C)=O)CO[C@@H]1C[C@@H]2O [Paclitaxel] | 26 ± 2 | Activity over tested dose range in BioMAP Systems ([1]; tested doses): active over the entire dose range; Signs of toxicity in BioMAP Systems [2]: no signs of toxicity |
| COc1cc(NC(C)CCCN)c2ncccc2c1 (stereo not drawn) [Primaquine Diphosphate] | 27 | – |
| CO[C@H]1C[C@@H]2CC[C@@H](C)[C@@](O)(O2)C(=O)C(=O)N2CCCC[C@H]2C(=O)O[C@H]([C@H](C)C[C@@H]2CC[C@@H](O)[C@H](OC)C2)CC(=O)[C@H](C)/C=C(\C)[C@@H](O)[C@@H](OC)C(=O)[C@H](C)C[C@H](C)/C=C/C=C/C=C/1C [Rapamycin] | 24 ± 1 | Signs of toxicity in BioMAP Systems [2]: no signs of toxicity |
| O=C1C=C2C=C[C@@H]3C[C@@]2(O1)[C@H]1CCCCN31 [Securinine] | 28 | – |
| CCOC(=O)Oc1c(OC)cc(C(=O)O[C@@H]2C[C@@H]3CN4CCc5c([nH]c6cc(OC)ccc56)[C@H]4C[C@@H]3[C@H](C(=O)OC)[C@H]2OC)cc1OC [Syrosingopine] | 22 | – |
| CC(C)N1CCN(c2ccc(OCC3COC(Cn4cncn4)(c4ccc(Cl)cc4Cl)O3)cc2)CC1 (stereo not drawn) [Terconazole] | 22 | – |
| COc1cc2c(c(OC)c1OC)-c1ccc(O)c(=O)cc1C(N)CC2 (stereo not drawn) [Trimethylcolchicinic Acid] | 29 | Preferential effect on smooth muscle cell versus endothelial cell proliferation [4]: preferential effect on smooth muscle cells over endothelial cells |
| C[C@@H]1C[C@H]2[C@@H]3CCC4=CC(=O)C=C[C@]4(C)[C@@]3(F)[C@@H](O)C[C@]2(C)[C@@]1(O)C(=O)CO [dexamethasone] | – | Signs of toxicity in BioMAP Systems [2]: no signs of toxicity |
| Clofilium Tosylate | 22 | – |
